In patent US8921372B2, “Inhibitors of hepatitis C virus” (Theravance Biopharma R&D IP, LLC, priority 2010, dated 2014):

Each molecule was assayed on HCV genotype 1a replicon cell line (APC89; Huh7.5 cell background) (assay: HCV Genotype 1a Replicon Assay (NS3-specific protease activity readout)). Conditions: Hepatitis C virus, 72 hour incubation, read-out: Genotype 1a (pEC50 class, HCV genotype 1a replicon assay) (converted).
Assay type: cell-based
Protocol: Assay 2: HCV Genotype 1a Replicon Assay
The HCV genotype 1a replicon cell line was obtained from Apath LLC (APC89; Huh7.5 cell background). This subgenomic replicon contains the N-terminus of the HCV core protein fused to the neomycin-resistance selectable marker. The EMCV IRES lies downstream and drives expression of the non-structural proteins NS3-NS5B. Compound potencies were determined using the NS3-specific protease activity in lysates as a measurement of compound inhibition of replicon levels.
(§1) Cells were grown at 37° C. in a 5% CO2 humidified incubator in DMEM (Invitrogen) with 10% FBS (HyClone), 1×NEAA (Invitrogen), 1× Pen-Strep (Invitrogen), and 850 μg/mL G418 (Invitrogen). On day 1 of the assay, cells were plated at 15,000 cells/well in black 96-well tissue culture plates (Costar) in 200 μL media lacking G418. Four hours later, once the cells had adhered, the media was removed and replaced with media (no G418) containing dose-responses of test compounds. Compounds were initially diluted in DMSO and then diluted another 200× in media to bring the final DMSO concentration down to 0.5%. The cells were incubated with test compounds for 48 or 72 hours. At the end of the incubation period, media and compound were removed from the plates.
To determine the NS3-specific protease activity in lysates, the cells were lysed at room temperature in 50 μL/well of 50 mM Hepes pH 7.5, 150 mM NaCl, 15% Glycerol, 0.15% Triton X-100, 10 mM DTT for 20 minutes with shaking. 50 μL of an NS3/4a protease-specific FRET substrate (Anaspec RET S1 Cat#22991) was then added to the wells at a final concentration of 15 μM. The plates were incubated at 37° C. for 20 minutes, which corresponds to a timepoint at which the protease activity is still in the linear phase. Protease activity was determined by measuring fluorescence (Excitation: 340 nm; Emission: 509 nm).
To analyze the data, the fluorescence was plotted vs. the compound concentration, and EC50 values were determined from a 4-parameter robust fit model using GraphPad Prism software.

SMILES | EC50 [pM]
COCCNC(=O)N1CCC[C@@]1(C)C(=O)N1C[C@@H](C)N(c2ccc(C(=O)Nc3cc(OC(F)(F)F)c(-c4ccc(-c5c[nH]c([C@@H]6CCCN6C(=O)[C@@H](NC(=O)OC)C(C)C)n5)cc4)cc3Cl)cn2)C[C@@H]1C [Example 28-43] | < 100
COC(=O)N[C@H](C(=O)N1CCC[C@H]1c1nc(-c2ccc(-c3cc(F)c(NC(=O)c4ccc(N5CCN(C(=O)NC(C)C)C[C@H]5C)nc4)cc3OC(F)(F)F)cc2)c[nH]1)C(C)C [Example 27-39] | 100 to 1000
COC(=O)N[C@H](C(=O)N1CCC[C@H]1c1nc(-c2ccc(-c3ccc(NC(=O)c4ccc(N5CCN(C(=O)C6CC6)CC5)cc4)cc3)cc2)c[nH]1)C(C)C [Example 1, {(S)-1-[(S)-2-(4-{4′-[4-(4-cyclopropanecarbonyl-piperazin-1-yl)-benzoylamino]-biphenyl-4-yl}-1H-imidazol-2-yl)-pyrrolidine-1-carbonyl]-2-methyl-propyl}-carbamic acid methyl ester] | 1000 to 10000
CNC(=O)C1CCC[C@@]1(C)C(=O)N1C[C@@H](C)N(c2ccc(C(=O)Nc3cc(OC(F)(F)F)c(-c4ccc(-c5c[nH]c([C@@H]6CCCN6C(=O)[C@@H](NC(=O)OC)C(C)C)n5)cc4)cc3Cl)cn2)C[C@@H]1C (some centres unmarked) [Example 28-42] | < 100
COC(=O)N[C@H](C(=O)N1CCC[C@H]1c1nc(-c2ccc(-c3cc(OC)c(NC(=O)c4ccc(N5CCN(C(=O)c6c[nH]cn6)C[C@H]5C)nc4)cc3OC(F)(F)F)cc2)c[nH]1)C(C)C [Example 27-29] | 100 to 1000
COC(=O)N[C@H](C(=O)N1CCC[C@H]1c1nc(-c2ccc(-c3ccc(NC(=O)c4ccc(N5C[C@H](C)N(C(=O)c6c[nH]cn6)C[C@H]5C)nc4)c(C)n3)cc2)c[nH]1)C(C)C [Example 75] | 1000 to 10000
CCOc1cc(NC(=O)c2ccc(N3CCN(C(=O)c4c[nH]cn4)C[C@H]3C)nc2)ccc1-c1ccc(-c2c[nH]c([C@@H]3CCCN3C(=O)[C@@H](NC(=O)OC)C(C)C)n2)cc1 [Example 24] | 100 to 1000
COC(=O)N[C@H](C(=O)N1CCC[C@H]1c1nc(-c2ccc(-c3cc(Cl)c(NC(=O)c4ccc(N5C[C@H](C)N(C(=O)[C@]6(C)CCCN6C(=O)CN(C)C)C[C@H]5C)nc4)cc3OC(F)(F)F)cc2)c[nH]1)C(C)C [Example 28-41] | < 100
CCOc1cc(NC(=O)c2ccc(N3CCN(C(=O)NC)C[C@H]3C)nc2)ccc1-c1ccc(-c2c[nH]c([C@@H]3CCCN3C(=O)[C@@H](NC(=O)OC)C(C)C)n2)cc1 [Example 23] | 100 to 1000
COC(=O)N[C@H](C(=O)N1CCC[C@H]1c1nc(-c2ccc(-c3ccc(NC(=O)c4ccc(N5C[C@H](C)N(C(=O)C6CC6)C[C@H]5C)nc4)c(C)n3)cc2)c[nH]1)C(C)C [Example 73] | 1000 to 10000
COCCNC(=O)N1CCC[C@@]1(C)C(=O)N1CCN(c2ccc(C(=O)Nc3cc(OC(F)(F)F)c(-c4ccc(-c5c[nH]c([C@@H]6CCCN6C(=O)[C@@H](NC(=O)OC)C(C)C)n5)cc4)cc3Cl)cn2)[C@H](C)C1 [Example 27-74] | < 100
COC(=O)N[C@H](C(=O)N1CCC[C@H]1c1nc(-c2ccc(-c3cc(Cl)c(NC(=O)c4ccc(N5CCN(C(=O)[C@]6(C)CCCN6C(=O)[C@@H](N)C(C)C)C[C@H]5C)nc4)cc3OC(F)(F)F)cc2)c[nH]1)C(C)C [Example 27-75] | < 100
COC(=O)N[C@H](C(=O)N1CCC[C@H]1c1nc(-c2ccc(-c3cc(Cl)c(NC(=O)c4ccc(N5CCN(C(=O)[C@]6(C)CCCN6C(=O)c6c[nH]cn6)C[C@H]5C)nc4)cc3OC(F)(F)F)cc2)c[nH]1)C(C)C [Example 27-71] | < 100
COC(=O)N[C@H](C(=O)N1CCC[C@H]1c1nc(-c2ccc(-c3ccc(C(=O)Nc4ccc(N5CCN(C(=O)[C@]6(C)CCCN6C(=O)[C@@H](NC(=O)OC)C(C)(C)C)C[C@H]5C)nc4)cc3OC(F)(F)F)cc2)c[nH]1)C(C)C [Example 70] | 100 to 1000
COC(=O)N[C@H](C(=O)N1CCC[C@H]1c1nc(-c2ccc(-c3cc(F)c(NC(=O)c4ccc(N5CCN(C(=O)NC6CC6)C[C@H]5C)nc4)cc3OC(F)(F)F)cc2)c[nH]1)C(C)C [Example 27-40] | 100 to 1000
COC(=O)N[C@H](C(=O)N1CCC[C@H]1c1nc(-c2ccc(-c3cc(F)c(NC(=O)c4ccc(N5CCN(C(=O)c6ncccn6)C[C@H]5C)nc4)cc3OC(F)(F)F)cc2)c[nH]1)C(C)C [Example 27-35] | 100 to 1000
COC(=O)N[C@H](C(=O)N1CCC[C@H]1c1nc(-c2ccc(-c3cc(F)c(NC(=O)c4ccc(N5CCN(C(=O)[C@]6(C)CCCN6C(=O)[C@H](C)O)C[C@H]5C)nc4)cc3OC(F)(F)F)cc2)c[nH]1)C(C)C [Example 27-49] | < 100
CNC(=O)N1CCN(c2ccc(C(=O)Nc3cc(OC(F)(F)F)c(-c4ccc(-c5c[nH]c([C@@H]6CCCN6C(=O)[C@@H](NC(=O)OC)C(C)C)n5)cc4)cc3OC)cn2)[C@H](C)C1 [Example 27-32] | 100 to 1000
COC(=O)N[C@H](C(=O)N1CCC[C@H]1c1nc(-c2ccc(-c3cc(F)c(NC(=O)c4ccc(N5CCN(C(=O)[C@]6(C)CCCN6)C[C@H]5C)nc4)cc3OC(F)(F)F)cc2)c[nH]1)C(C)C [Example 27-9] | 1000 to 10000
COC(=O)N[C@H](C(=O)N1CCC[C@H]1c1nc(-c2ccc(-c3cc(F)c(NC(=O)c4ccc(N5CCN(C(=O)[C@]6(C)CCCN6C(=O)OC(C)(C)C)C[C@H]5C)nc4)cc3OC(F)(F)F)cc2)c[nH]1)C(C)C [Example 27-8] | < 100
COC(=O)N[C@H](C(=O)N1CCC[C@H]1c1nc(-c2ccc(-c3ccc(C(=O)Nc4ccc(N5CCN(C(=O)[C@]6(C)CCCN6C(=O)[C@@H](NC(=O)OC)C(C)O)C[C@H]5C)nc4)cc3OC(F)(F)F)cc2)c[nH]1)C(C)C (some centres unmarked) [Example 67] | 100 to 1000
COC(=O)N[C@H](C(=O)N1CCC[C@H]1c1nc(-c2ccc(-c3cc(Cl)c(NC(=O)c4ccc(N5CCN(C(=O)[C@]6(C)CCCN6C(=O)CO)C[C@H]5C)nc4)cc3OC(F)(F)F)cc2)c[nH]1)C(C)C [Example 27-76] | < 100
COC(=O)N[C@H](C(=O)N1CCC[C@H]1c1nc(-c2ccc(-c3cc(Cl)c(NC(=O)c4ccc(N5CCN(C(=O)c6c[nH]cn6)C[C@H]5C)nc4)cc3OC(F)(F)F)cc2)c[nH]1)C(C)C [Example 27-66] | < 100
CNC(=O)N1C[C@@H](C)N(c2ccc(C(=O)Nc3ccc(-c4ccc(-c5c[nH]c([C@@H]6CCCN6C(=O)[C@@H](NC(=O)OC)C(C)C)n5)cc4)nc3C)cn2)C[C@@H]1C [Example 74] | 1000 to 10000
COC(=O)N[C@H](C(=O)N1CCC[C@H]1c1nc(-c2ccc(-c3ccc(NC(=O)c4ccc(N5CCN(C(=O)[C@H]6CC6(C)C)C[C@H]5C)nc4)cc3OC(F)(F)F)nc2)c[nH]1)C(C)C [Example 76, {(S)-1-[(S)-2-(4-{6-[4-({6-[(R)-4-((S)-2,2-Dimethyl-cyclopropanecarbonyl)-2-methyl-piperazin-1-yl]-pyridine-3-carbonyl}-amino)-trifluoromethoxyphenyl]-pyridin-3-yl}-1H-imidazol-2-yl)-pyrrolidine-1-carbonyl]-2-methyl-propyl}-carbamic acid methyl ester] | 100 to 1000

Each molecule was assayed on HCV genotype 1b replicon cell line (APC144; Huh7 cell background) (assay: HCV Genotype 1b Replicon Assay (Renilla luciferase readout)). Conditions: Hepatitis C virus, Huh-7; read-out: Genotype 1b (pEC50 class, HCV genotype 1b replicon assay) (converted).
Assay type: cell-based
Source text: Assay 1: HCV Genotype 1b Replicon Assay
The HCV genotype 1b replicon cell line was obtained from Apath LLC (Brooklyn, N.Y.) (APC144; Huh7 cell background). This subgenomic replicon contains the N-terminus of the HCV core protein fused to the neomycin-resistance selectable marker. The EMCV IRES lies downstream and drives expression of humanized Renilla luciferase fused to the non-structural proteins NS3-NS5B. This cell line was used to determine compound potency using the luciferase activity readout as a measurement of compound inhibition of replicon levels.
as §1, with “500” for “850”, “10,000” for “15,000”, “white” for “black”, “have” for “had”, “48” for “48 or 72”, “plates and the luciferase activity was determined using Promega Renilla-Glo reagents.” for “plates.”
To analyze the data, the luciferase activity was plotted vs. the compound concentration, and EC50 values were determined from a 4-parameter robust fit model with the GraphPad Prism software package (GraphPad Software, Inc., San Diego, Calif.). Results are expressed as the negative decadic logarithm of the EC50 value, pEC50.
Test compounds having a higher pEC50 value in this assay show greater inhibition of HCV genotype 1b replication.

SMILES | EC50 [pM]
COC(=O)N[C@H](C(=O)N1CCC[C@H]1c1nc(-c2ccc(-c3ccc(NC(=O)c4ccc(N5CCN(C(=O)C6CC6)CC5)cc4)cc3)cc2)c[nH]1)C(C)C [Example 1, {(S)-1-[(S)-2-(4-{4′-[4-(4-cyclopropanecarbonyl-piperazin-1-yl)-benzoylamino]-biphenyl-4-yl}-1H-imidazol-2-yl)-pyrrolidine-1-carbonyl]-2-methyl-propyl}-carbamic acid methyl ester] | < 100
